Read-outs that look alike come from different tables or passages of the source.
Biological target: T1, human platelet PDE-V (Homo sapiens, UniProt O76074)
T1 construct: Human platelet cGMP-PDE was separated from other isozymes in human platelets; from tissue; host or cells: human platelets
Assay: cGMP-Phosphodiesterase (PDE) assay, enzymatic inhibitory test
Format: biochemical
Procedure: cGMP-Phosphodiesterase (PDE) Assay
Human platelet cGMP-PDE was separated from other isozymes in human platelets by a modification of the method of Thompson et. al. (see Cyclic Nucleotide Phosphodiesterase (PDE), in Methods of Enzymatic analysis, Vol 4, p127-234, 1984). In enzyme inhibition assays, the test compounds were dissolved in DMSO and then diluted with assay buffer (50 mM Tris-HCl, 0.077 mg/ml dithiothreitol and 10 mg/ml snake venom, 1 mM EGTA, pH 8.0), at final concentrations ranging from 10^−10 to 10^−6 M. Assays were performed at 0.1 μM substrate ([^3H]-cGMP) concentration, at 30° C. for 10 minutes using enzyme dilutions which gave 10-20% hydrolysis of substrate. Each assay was initiated by addition of substrate and terminated by addition of anion exchange resin (Dowex® 1-X8, 250 mg/mg) followed by centrifugation for 10 minutes (3000 rpm, at 4° C.). Radioactivity of supernatant (^3H-GMP) was assayed by liquid scintillation counting.

[1] = human platelet PDE-V, 0.1 μM [3H]-cGMP substrate, 30° C., 10 minutes, read-out: Inhibitory activity IC50

IC50 [1]	SMILES	IC50
< 10 nM	CCOc1cc(CNC(=O)c2cc([N+](=O)[O-])ccc2N[C@H]2CC[C@@H](O)CC2)ccc1Cl [N-(4-Chloro-3-ethoxybenzyl)-2-(cis-4-hydroxycyclohexylamino)-5-nitrobenzaride]	–
< 10 nM	O=C1CCC(Nc2ccc([N+](=O)[O-])cc2C(=O)NCc2ccc3c(c2)OCO3)CC1 [5-nitro-2-(4-oxocyclohexylamino)-N-(1,3-benzodioxol-5-ylmethyl)benzamide]	–
< 10 nM	COc1ccc(Cl)c(CNC(=O)c2cc([N+](=O)[O-])ccc2N[C@H]2CC[C@@H](O)CC2)c1 [N-(2-Chloro-5-methoxybenzyl)-2-(cis-4-hydroxycyclohexylamino)-5-nitrobenzamide]	–
< 10 nM	COC(=O)C1CCC(Nc2ccc([N+](=O)[O-])cc2C(=O)NCc2ccc3c(c2)OCO3)CC1 (centres unmarked) [2-[4-(Methoxycarbonyl)cyclohexylamino]-5-nitro-N-(1,3-benzodioxol-5-ylmethyl)benzamide]	–
< 10 nM	COc1c(Cl)cc(CNC(=O)c2cc([N+](=O)[O-])ccc2N[C@H]2CC[C@H](O)CC2)cc1Cl [N-(3,5-Dichloro-4-methoxybenzyl)-2-(trans-4-hydroxycyclohexylamino)-5-nitrobenzamide]	–
< 10 nM	CCOc1ccc(CNC(=O)c2cc([N+](=O)[O-])ccc2N[C@H]2CC[C@H](NC=O)CC2)cc1OC [N-(4-Ethoxy-3-methoxybenzyl)-2-(trans-4-formamidocyclohexylamino)-5-nitrobenzamide]	–
< 10 nM	O=C(NCc1ccc2c(c1)OCO2)c1cc([N+](=O)[O-])ccc1NC1CCN(Cc2ccccc2)CC1 [2-(1-Benzylpiperidin-4-ylamino)-5-nitro-N-(1,3-benzodioxol-5-ylmethyl)benzamide]	–
< 10 nM	CN1CCC(Nc2ccc([N+](=O)[O-])cc2C(=O)NCc2ccc3c(c2)OCO3)CC1 [2-(1-methyl-4-piperidinylamino)-5-nitro-N-(1,3-benzodioxol-5-ylmethyl)benzamide]	–
< 10 nM	O=C(NCc1ccc2c(c1)OCCO2)c1cc([N+](=O)[O-])ccc1N[C@H]1CC[C@H](O)CC1 [N-(3,4-Ethylenedioxybenzyl)-2-(trans-4-hydroxycyclohexylamino)-5-nitrobenzamide]	–
< 10 nM	CCCNC(=O)N[C@H]1CC[C@H](Nc2ccc([N+](=O)[O-])cc2C(=O)NCc2ccc(OC)c(OC)c2)CC1 [N-(3,4-dimethoxybenzyl)-5-nitro-2-[trans-4-(3-propylureido)cyclohexylamino]benzamide]	–
< 10 nM	CC[C@@H](CCl)Nc1ccc([N+](=O)[O-])cc1C(=O)NCc1ccc2c(c1)OCO2 [(S)-2-[1-(chloromethyl)propylamino]-5-nitro-N-(1,3-benzodioxol-5-ylmethyl)benzamide]	–
< 10 nM	O=C(NCc1ccc2c(c1)OCO2)c1cc([N+](=O)[O-])ccc1NC1CCSCC1 [5-Nitro-N-(1,3-benzodioxol-5-ylmethyl)-2-(tetrahydro-2H-thiopyran-4-ylamino)benzamide]	–

Continued, molecule first:

SMILES	IC50 [1]	IC50
COc1ccc(CNC(=O)c2cc([N+](=O)[O-])ccc2NC(CO)CO)cc1F [N-(3-Fluoro-4-methoxybenzyl)-2-[2-hydroxy-1-(hydroxynethyl)ethylamino]-5-nitrobenzamide]	< 10 nM	–
O=C(NCc1ccc2c(c1)OCO2)c1cc([N+](=O)[O-])ccc1NC(CCl)CCl [2-[2-Chloro-1-(chloromethyl)ethylamino]-5-nitro-N-(1,3-benzodioxol-5-ylmethyl)benzamide]	–	< 10 nM
O=C(NCc1ccc([N+](=O)[O-])cc1)c1cc([N+](=O)[O-])ccc1NC1CCCC1 [2-(Cyclopentylamino)-5-nitro-N-(4-nitrobenzyl)benzamide]	–	< 10 nM
COc1cc(CNC(=O)c2cc([N+](=O)[O-])ccc2NC(CO)CO)ccc1C [2-[2-Hydroxy-1-hydroxymethyl)ethylamino]-N-(3-methoxy-4-methylbenzyl)-5-nitrobenzamide]	< 10 nM	–
O=C(NCc1cccs1)c1cc([N+](=O)[O-])ccc1NC1CCCC1 [2-(Cyclopentylamino)-5-nitro-N-(2-thienylmethyl)benzamide]	< 10 nM	–
O=C(NCCc1ccccc1)c1cc([N+](=O)[O-])ccc1NC1CCCC1 [2-(Cyclopentylamino)-5-nitro-N-phenethylbenzamide]	< 10 nM	–
O=C(NCc1ccc(Cl)c(Cl)c1)c1cc([N+](=O)[O-])ccc1NC1CCCC1 [2-(Cyclopentylamino)-N-(3,4-dichlorobenzyl)-5-nitrobenzamide]	< 10 nM	–
O=C(NCc1ccccc1)c1cc([N+](=O)[O-])ccc1NC1CC1 [N-Benzyl-2-(cyclopropylamino)-5-nitrobenzamide]	< 10 nM	–
COc1cc(CNC(=O)c2cc([N+](=O)[O-])ccc2NC(CO)CO)ccc1OCC1CCC1 [N-(4-Cyclobutylmethoxy-3-methoxybenzyl)-2-[2-hydroxy-1-(hydroxymethyl)ethylamino]-5-nitrobenzamide]	< 10 nM	–
COc1ccc(CNC(=O)c2cc([N+](=O)[O-])ccc2NC2CCN(C(=NC(=O)OC(C)(C)C)NC(=O)OC(C)(C)C)CC2)cc1OC [2-[1-[1,3-Bis(tert-butoxycarbonyl)amidino]piperidin-4-ylamino]-N-(3,4-dimethoxybenzyl)-5-nitrobenzamide]	< 10 nM	–
COc1ccc(CNC(=O)c2cc([N+](=O)[O-])ccc2N[C@H](C(N)=O)[C@@H](C)O)cc1OC [2-[(1S, 2R)-1-(Carbamoyl)-2-hydroxypropylamino]-N-(3,4-dimethoxybenzyl)-5-nitrobenzamide]	< 10 nM	–
CC(C)(C)OC(=O)N1CCC(Nc2ccc([N+](=O)[O-])cc2C(=O)NCc2ccc3c(c2)OCO3)CC1 [2-[1-(tert-Butoxycarbonyl)-4-piperidinylamino]-5-nitro-N-(1,3-benzodioxol-5-ylmethyl)benzamide]	< 10 nM	–
COc1ccc(CNC(=O)c2cc([N+](=O)[O-])ccc2N[C@H](CO)CNC=O)cc1OC [(S)-N-(3,4-Dimethoxybenzyl)-2-[1-(formamidomethyl)-2-hydroxyethylamino]-5-nitrobenzamide]	< 10 nM	–
O=C(NCc1ccccc1)c1cc([N+](=O)[O-])ccc1NC1CCC1 [N-Benzyl-2-(cyclobutylamino)-5-nitrobenzamide]	< 10 nM	–
Cc1ccc(CNC(=O)c2cc([N+](=O)[O-])ccc2NC2CCCC2)cc1 [2-(Cyclopentylamino)-N-(4-methylbenzyl)-5-nitrobenzamide]	< 10 nM	–
O=C(NCc1ccccc1Cl)c1cc([N+](=O)[O-])ccc1NC1CCCC1 [N-(2-Chlorobenzyl)-2-cyclopentylamino-5-nitrobenzamide]	< 10 nM	–
COc1ccc(CNC(=O)c2cc([N+](=O)[O-])ccc2NC2CCCC2)c(Cl)c1 [N-(2-Chloro-4-methoxybenzyl)-2-(cyclopentyrlamino)-5-nitrobenzamide]	< 10 nM	–
O=C(NCc1ccc(Cl)cc1Cl)c1cc([N+](=O)[O-])ccc1NC1CCCC1 [2-(Cyclopentylamino)-N-(2,4-dichlorobenzyl)-5-nitrobenzamide]	< 10 nM	–
COc1ccc(CNC(=O)c2cc([N+](=O)[O-])ccc2NC2CCNCC2)cc1OC [N-(3,4-Dimethoxybenzyl)-5-nitro-2-(4-piperidinylamino)benzamide]	< 10 nM	–
O=C(NCC1CCCCC1)c1cc([N+](=O)[O-])ccc1N[C@H]1CC[C@@H](O)CC1 [N-cyclohexylmethyl-2-(cis-4-hydroxycyclohexylamino)-5-nitrobenzamide]	< 10 nM	–

From patent US6384080B1, “Anthranilic acid derivatives as inhibitors of the cGMP-phosphodiesterase” (Fujisawa Pharmaceutical Co., Ltd., priority 1998, dated 2002)
